Measured values as given in paper PMC9518264, “Design and synthesis of novel quinazolinone-based derivatives as EGFR inhibitors with antitumor activity” (Journal of Enzyme Inhibition and Medicinal Chemistry, 2022).

Columns and labels:
U251 = experiment: cells; assay type: cell-based; details: U251, 5 doses
MALME-3M = experiment: cells; assay type: cell-based
SK-MEL-2 = experiment: cells; assay type: cell-based
SK-MEL-28 = experiment: cells; assay type: cell-based
SK-MEL-5 = experiment: cells; assay type: cell-based
UACC-257 = experiment: cells; assay type: cell-based
UACC-62 = experiment: cells; assay type: cell-based
OVCAR-4 = experiment: cells; assay type: cell-based
OVCAR-5 = experiment: cells; assay type: cell-based
NCI/ADR-RES = experiment: cells; assay type: cell-based
786-0 = experiment: cells; assay type: cell-based
A498 = experiment: cells; assay type: cell-based
ACHN = experiment: cells; assay type: cell-based
SN12C = experiment: cells; assay type: cell-based
TK-10 = experiment: cells; assay type: cell-based
UO-31 = experiment: cells; assay type: cell-based
PC-3 = experiment: cells; assay type: cell-based
DU-145 = experiment: cells; assay type: cell-based
MCF7 = experiment: cells; assay type: cell-based
BT-549 = experiment: cells; assay type: cell-based
T-47D = experiment: cells; assay type: cell-based
[1] = tested on: panel of 60 tumour cell lines; experiment: NCI 60 cell line antiproliferative screening (SRB), whole panel or subpanels (means, ranges, words); assay type: cell-based, human
MDA-MB-468 = experiment: NCI 60 cell line antiproliferative screening (SRB), Breast cancer
OVCAR-3 = experiment: NCI 60 cell line antiproliferative screening (SRB), Ovarian cancer
[2] = Homo sapiens, 5 doses, read-out: LC50 (the source's name)
[3] = Homo sapiens, read-out: growth inhibition % (GI%)

O=C(CSc1nc2ccccc2c(=O)n1-c1ccc(Cl)cc1)NN=Cc1ccc(Oc2ccc(Cl)cc2)cc1 [6d, N'-(4–(4-chlorophenoxy)benzylidene)-2-((3–(4-chlorophenyl)-4-oxo-3,4-dihydroquinazolin-2-yl)thio)acetohydrazide]
CC50 (U251; Homo sapiens, U-251, read-out: LC50 (the source's name)): 8.23 µM | TGI (U251): 3.69 µM | GI50 (MALME-3M; Homo sapiens, Malme-3M): 1.38 µM | inhibition at 10 µM (MALME-3M; Homo sapiens, Malme-3M, read-out: growth inhibition % (GI%)): > 100% | CC50 (MALME-3M; Homo sapiens, MALME-3M, 5 doses, read-out: LC50 (the source's name)): 5.55 µM | TGI (MALME-3M; MALME-3M, 5 doses): 2.77 µM | GI50 (SK-MEL-2; Homo sapiens): 2.86 µM | inhibition at 10 µM (SK-MEL-2; Homo sapiens, SK-MEL-2, read-out: growth inhibition % (GI%)): 45.7% | CC50 (SK-MEL-2; Homo sapiens, SK-MEL-2, 5 doses, read-out: LC50 (the source's name)): 41.3 µM | TGI (SK-MEL-2; SK-MEL-2, 5 doses): 8.93 µM | GI50 (SK-MEL-28; Homo sapiens, SK-MEL-28): 1.51 µM | inhibition at 10 µM (SK-MEL-28; Homo sapiens, SK-MEL-28, read-out: growth inhibition % (GI%)): 96.8% | CC50 (SK-MEL-28; Homo sapiens, SK-MEL-28, 5 doses, read-out: LC50 (the source's name)): 6.01 µM | TGI (SK-MEL-28; SK-MEL-28, 5 doses): 3.01 µM | GI50 (SK-MEL-5; Homo sapiens, SK-MEL-5): 1.75 µM | inhibition at 10 µM (SK-MEL-5; Homo sapiens, SK-MEL-5, read-out: growth inhibition % (GI%)): 89.1% | CC50 (SK-MEL-5; Homo sapiens, SK-MEL-5, 5 doses, read-out: LC50 (the source's name)): 7.07 µM | TGI (SK-MEL-5; SK-MEL-5, 5 doses): 3.51 µM | GI50 (UACC-257; Homo sapiens, UACC-257): 4.62 µM | inhibition at 10 µM (UACC-257; Homo sapiens, UACC-257, read-out: growth inhibition % (GI%)): 41% | CC50 (UACC-257; Homo sapiens, UACC-257, 5 doses, read-out: LC50 (the source's name)): > 100 µM | TGI (UACC-257; UACC-257, 5 doses): 22.5 µM | GI50 (UACC-62; Homo sapiens, UACC-62): 1.59 µM | inhibition at 10 µM (UACC-62; Homo sapiens, UACC-62, read-out: growth inhibition % (GI%)): 99.6% | CC50 (UACC-62; Homo sapiens, UACC-62, 5 doses, read-out: LC50 (the source's name)): 6.38 µM | TGI (UACC-62; UACC-62, 5 doses): 3.18 µM | GI50 (OVCAR-4; Homo sapiens, OVCAR-4): 1.89 µM | inhibition at 10 µM (OVCAR-4; Homo sapiens, OVCAR-4, read-out: growth inhibition % (GI%)): 98.3% | CC50 (OVCAR-4; Homo sapiens, OVCAR-4, 5 doses, read-out: LC50 (the source's name)): 17.5 µM | TGI (OVCAR-4; OVCAR-4, 5 doses): 4.57 µM | GI50 (OVCAR-5; Homo sapiens, OVCAR-5): 2.27 µM | inhibition at 10 µM (OVCAR-5; Homo sapiens, OVCAR-5, read-out: growth inhibition % (GI%)): 29.4% | CC50 (OVCAR-5; Homo sapiens, OVCAR-5, 5 doses, read-out: LC50 (the source's name)): 32.2 µM | TGI (OVCAR-5; OVCAR-5, 5 doses): 6.44 µM | TGI (NCI/ADR-RES; 5 doses): 3.56 µM | GI50 (NCI/ADR-RES; Homo sapiens): 1.64 µM | CC50 (NCI/ADR-RES; [2]): 7.76 µM | inhibition at 10 µM (NCI/ADR-RES; [3]): 84.3% | TGI (786-0; 786-0, 5 doses): 6.41 µM | GI50 (786-0; Homo sapiens, 786-0): 2.51 µM | inhibition at 10 µM (786-0; Homo sapiens, 786-0, read-out: growth inhibition % (GI%)): > 100% | CC50 (786-0; Homo sapiens, 786-0, 5 doses, read-out: LC50 (the source's name)): 26.5 µM | TGI (A498; A498, 5 doses): 4.34 µM | GI50 (A498; Homo sapiens, A498): 1.94 µM | inhibition at 10 µM (A498; Homo sapiens, A498, read-out: growth inhibition % (GI%)): > 100% | CC50 (A498; Homo sapiens, A498, 5 doses, read-out: LC50 (the source's name)): 9.74 µM | TGI (ACHN; 5 doses): 15.2 µM | GI50 (ACHN; Homo sapiens): 4.36 µM | CC50 (ACHN; [2]): 39 µM | inhibition at 10 µM (ACHN; [3]): 36.5% | TGI (SN12C; 5 doses): 4.14 µM | GI50 (SN12C; Homo sapiens): 1.74 µM | CC50 (SN12C; [2]): 9.84 µM | inhibition at 10 µM (SN12C; [3]): 54.8% | GI50 (TK-10; Homo sapiens, TK-10): 5.97 µM | inhibition at 10 µM (TK-10; Homo sapiens, TK-10, read-out: growth inhibition % (GI%)): 60.3% | CC50 (TK-10; Homo sapiens, TK-10, 5 doses, read-out: LC50 (the source's name)): > 100 µM | TGI (TK-10; TK-10, 5 doses): 40.2 µM | GI50 (UO-31; Homo sapiens, UO-31): 7.47 µM | inhibition at 10 µM (UO-31; Homo sapiens, UO-31, read-out: growth inhibition % (GI%)): < 15% | CC50 (UO-31; Homo sapiens, UO-31, 5 doses, read-out: LC50 (the source's name)): 47.1 µM | TGI (UO-31; UO-31, 5 doses): 21.1 µM | GI50 (PC-3; Homo sapiens, PC-3): 2.58 µM | inhibition at 10 µM (PC-3; Homo sapiens, PC-3, read-out: growth inhibition % (GI%)): 99.2% | CC50 (PC-3; Homo sapiens, PC-3, 5 doses, read-out: LC50 (the source's name)): > 100 µM | TGI (PC-3; PC-3, 5 doses): 9.32 µM | TGI (DU-145; DU-145, 5 doses): 20.4 µM | GI50 (DU-145; Homo sapiens, DU-145): 3.52 µM | inhibition at 10 µM (DU-145; Homo sapiens, DU-145, read-out: growth inhibition % (GI%)): 86.9% | CC50 (DU-145; Homo sapiens, DU-145, 5 doses, read-out: LC50 (the source's name)): > 100 µM | GI50 (MCF7; Homo sapiens, MCF7): 2.01 µM | inhibition at 10 µM (MCF7; Homo sapiens, MCF7, read-out: growth inhibition % (GI%)): 84.5% | CC50 (MCF7; Homo sapiens, MCF7, 5 doses, read-out: LC50 (the source's name)): 25.6 µM | TGI (MCF7; MCF7, 5 doses): 5.5 µM | TGI (BT-549; BT-549, 5 doses): 12.2 µM | GI50 (BT-549; Homo sapiens, BT-549): 3.28 µM | inhibition at 10 µM (BT-549; Homo sapiens, BT-549, read-out: growth inhibition % (GI%)): > 100% | CC50 (BT-549; Homo sapiens, BT-549, 5 doses, read-out: LC50 (the source's name)): 36.2 µM | GI50 (T-47D; Homo sapiens, T47D): 2.09 µM | inhibition at 10 µM (T-47D; Homo sapiens, T47D, read-out: growth inhibition % (GI%)): 69.9% | CC50 (T-47D; Homo sapiens, T47D, T-47D, 5 doses, read-out: LC50 (the source's name)): 49.5 µM | TGI (T-47D; T-47D, 5 doses): 5.76 µM | GI50 ([1]; Homo sapiens, 60 cell, read-out: GI50 range against most of the tested cancer cell lines): 1.29 to 5.97 µM | inhibition at 10 µM ([1]; Homo sapiens, 60 cell, read-out: Mean growth inhibition % (mean GI%)): 80.2% | TGI range against the rest of cell lines ([1]; five dose concentrations, good to moderate cytostatic activity): 11.1 to 48.5 µM | TGI range against 40 cancer cell lines ([1]; five dose concentrations, high cytostatic activity): 2.59 to 9.55 µM | GI50 (MDA-MB-468; Homo sapiens, MDA-MB-468): 2.08 µM | CC50 (MDA-MB-468; Homo sapiens, MDA-MB-468, read-out: LC50): 18.8 µM | inhibition at 10 µM (MDA-MB-468; Homo sapiens, MDA-MB-468, read-out: growth inhibition % (GI%)): > 100% | TGI (MDA-MB-468; MDA-MB-468, 5 doses): 5.08 µM | GI50 (OVCAR-3; Homo sapiens, OVCAR-3): 2.75 µM | CC50 (OVCAR-3; Homo sapiens, OVCAR-3, read-out: LC50): 38.9 µM | inhibition at 10 µM (OVCAR-3; Homo sapiens, OVCAR-3, read-out: growth inhibition % (GI%)): < 15% | TGI (OVCAR-3; OVCAR-3, 5 doses): 9.55 µM
